Measured values reported in article PMC11324666, “Two novel in vitro assays to screen chemicals for their capacity to inhibit thyroid hormone transmembrane transporter proteins OATP1C1 and OAT4” (Archives of Toxicology, 2024).

Molecular target: T1, OAT4 (Homo sapiens, UniProt Q9NSA0)
T1 construct: V5 (from pLenti6/V5-DEST); expressed in transfected cells; host or cells: MDCK-1 (lentiviral transduction, blasticidin selection)
T1 sequence (Q9NSA0 1-550): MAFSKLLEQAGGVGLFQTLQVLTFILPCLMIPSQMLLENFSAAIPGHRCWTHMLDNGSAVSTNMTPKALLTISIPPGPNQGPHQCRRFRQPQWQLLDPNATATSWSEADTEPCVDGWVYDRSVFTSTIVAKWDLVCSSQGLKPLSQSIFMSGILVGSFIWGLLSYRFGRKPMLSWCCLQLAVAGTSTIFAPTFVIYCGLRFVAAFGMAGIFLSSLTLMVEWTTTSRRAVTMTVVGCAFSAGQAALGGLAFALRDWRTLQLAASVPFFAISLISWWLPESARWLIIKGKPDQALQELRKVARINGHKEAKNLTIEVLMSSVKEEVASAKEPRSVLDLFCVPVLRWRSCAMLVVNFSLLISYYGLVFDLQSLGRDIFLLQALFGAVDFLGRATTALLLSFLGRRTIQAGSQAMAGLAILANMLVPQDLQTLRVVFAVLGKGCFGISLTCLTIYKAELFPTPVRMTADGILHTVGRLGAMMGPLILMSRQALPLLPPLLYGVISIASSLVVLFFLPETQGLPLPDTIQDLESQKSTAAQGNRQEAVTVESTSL
Experiment: MDCK-OAT4 TH uptake assay with 125I-T4 tracer
Format: cell-based
Settings: for T4 uptake inhibition BMC20 (M), [CI]: concentration that inhibits 125I-T4 uptake by 20%, brackets = 95% CI; for T4 uptake inhibition BMC20 (M), [CI] / 125I-T4 uptake compared to the vehicle control (range finding): 10 nM T4, 20 min; for 125I-T4 uptake compared to the vehicle control (range finding): single concentration 10 or 100 µM, below 80% = positive hit
Description: Subsequently OAT4 in pENTR™/D-TOPO® Vector was shuffled into the pLenti6/V5-DEST vector (Thermo Fisher) using Gateway™ LR Clonase™ II Enzyme mix (Thermo Fisher) according to the manufacture’s protocol.
To generate an OAT4 stable cell line, MDCK-1 cells were plated in 12-well plates with full growth medium and transduced with fresh viral supernatants in the absence of antibiotics in medium. After 2 days, MDCK-1 cells transduced with OAT4 (MDCK-OAT4) or empty vector (MDCK-DEST) were selected in full growth medium supplemented with 2 µg/mL blasticidin and further maintained under blasticidin selection.
MDCK-OAT4 and MDCK-DEST cells were cultured in DMEM:F12 (L-glutamine, 15 mM HEPES) (Gibco) supplemented with (100 µg/mL penicillin + 100 µg/mL streptomycin), 10% fetal calf serum (Gibco) and 2 µg/mL blasticidin (Sigma). CHO-K1 OATP1C1 or WT cells were cultured in F12 nutrient mix (Gibco) supplemented with (100 µg/mL penicillin + 100 µg/mL streptomycin), 10% fetal calf serum (Gibco) and […] G418 (Sigma). All cell cultures were incubated at 37 °C with 5% CO2 saturation until 80% confluency. MDCK-OAT4 and MDCK-DEST cells were seeded in 96 wells plate at a density of 4 × 10^5 cells in 100 µL medium per well and incubated for 24 h before the start of the MDCK-OAT4 TH uptake assay. CHO-K1 OATP1C1 and WT cells were seeded in 96 wells plate at a density of 3 × 10^5 cells in 100 µL medium per well 72 h before the CHO-K1 OATP1C1 TH uptake assay. Medium from CHO-K1 OATP1C1 or WT assay plates was changed to serum-free F12 medium containing 5 mM sodium-butyrate 24 h before start of the CHO-K1 OATP1C1 TH uptake assay to increase transfected expression of SV-40 promotor plasmids.
Subsequently 10 µL of a tenfold stock of test compound in uptake buffer (solvent concentration 1% v/v) was added to each well. […] Cells were exposed at 37 °C for 20 min (MDCK-OAT4) or 30 min (CHO-K1 OATP1C1), unless stated differently. After exposure, cells were immediately washed with ice-cold PBS supplemented with 0.1% bovine serum albumin (BSA). Subsequently, cells were lysed in 50 µL of 0.1 M NaOH under continuous shaking at room temperature. After 20 min, cell lysates were manually transferred into separate 5 mL polypropylene tubes. One tube was also prepared with 10 µL of the T4 tracer solution. Radioactivity was measured in a Wizard^2 gamma counter (Perkin Elmer).
For the CHO-K1 OATP1C1 TH uptake assay total of 29 chemicals (Table 1) were selected for the EDC screening based on available literature data. […] The same chemicals were selected for the MDCK-OAT4 TH uptake assay, with the exception of BPF, VRP and TCS. […] The THTMT TH uptake assay was then performed as described earlier. […] A concentration of 100 µM ICG was used as a reference chemical for OATP1C1 and 100 µM LESI for OAT4. At least three independent experiments were performed for each chemical. Each individual experiment contained three technical replicates of each control and concentration tested.
Raw values were normalized to the total amount of radioactivity in the T4 tracer solution. These values were expressed as a percentage of total radioactivity added (or uptake percentage) and used for all further data analysis. Statistically significant differences between the T4 uptake of transfected and wild type cells, in the presence or absence of inhibitor, were determined by two-way ANOVA (α = 5%, two-sided). […] In brief, uptake values were normalized to the median response of the vehicle and positive controls for each plate. […] Statistical analysis were performed using GraphPad Prism version 8 for Windows (GraphPad Software, San Diego, California USA) and SAS 9.3 (SAS Institute, Cary NC).

| Compound | T4 uptake inhibition BMC20 (M), [CI] | 125I-T4 uptake compared to the vehicle control (range finding) | BMC20 (20% reduction in T4 uptake) [µM] |
| --- | --- | --- | --- |
| CC(C)(c1cc(Br)c(O)c(Br)c1)c1cc(Br)c(O)c(Br)c1 [Tetrabromobisphenol A, Tetrabromobisphenol-A] | 6.49E−07 [4.32E−07; 9.74E−07] M | below 80% | – |
| CC1(C)C(/C=C/C=C/C=C/C=C2\N(CCCCS(=O)(=O)O)c3ccc4ccccc4c3C2(C)C)=[N+](CCCCS(=O)(=O)[O-])c2ccc3ccccc3c21 [Indocyanine green, reference compound] | 1.68E−05 [1.20E−05; 2.33E−05] M | – | – |
| O=C(O)C(F)(F)C(F)(F)C(F)(F)C(F)(F)C(F)(F)C(F)(F)C(F)(F)F [Perfluorooctanoic acid] | 1.38E−06 [4.27E−07; 4.44E−06] M | – | – |
| Oc1ccc(Cc2ccc(O)cc2)cc1 [Bisphenol F, Bisphenol-F] | – | below 80% | – |
| Oc1ccc(C(c2ccc(O)cc2)(C(F)(F)F)C(F)(F)F)cc1 [Bisphenol AF, Bisphenol-AF] | 5.39E−06 [1.65E−06; 1.76E−05] M | – | – |
| O=c1c(O)c(-c2ccc(O)c(O)c2)oc2cc(O)cc(O)c12 [Quercetin] | 1.23E−05 [4.77E−06; 3.16E−05] M | – | – |
| CCCN(CCC)S(=O)(=O)c1ccc(C(=O)O)cc1 [Probenecid, reference compound] | 3.65E−05 [2.69E−05; 4.61E−05] M | – | – |
| O=C1OC(c2ccc(O)c(S(=O)(=O)O)c2)(c2ccc(O)c(S(=O)(=O)O)c2)c2c(Br)c(Br)c(Br)c(Br)c21 [Bromosulfophthalein, reference compound] | 7.25E−08 [3.85E−08; 1.36E−07] M | below 80% | 0.072 |
| O=S(=O)(O)C(F)(F)C(F)(F)C(F)(F)C(F)(F)C(F)(F)C(F)(F)C(F)(F)C(F)(F)F [Perfluorooctanesulfonic acid] | 1.44E−06 [4.08E−07; 5.05E−06] M | below 80% | – |
| COc1cc([C@@H]2Oc3c(O)cc([C@H]4Oc5cc(O)cc(O)c5C(=O)[C@@H]4O)cc3[C@H]2CO)ccc1O [Silychristin, reference compound] | – | ≥ 80% | – |
| CO[C@H]1/C=C/O[C@@]2(C)Oc3c(C)c(O)c4c(O)c(c(/C=N/N5CCN(C)CC5)c(O)c4c3C2=O)NC(=O)/C(C)=C\C=C\[C@H](C)[C@H](O)[C@@H](C)[C@@H](O)[C@@H](C)[C@H](OC(C)=O)[C@@H]1C [Rifampicin, reference compound] | 1.02E−05 [4.85E−06; 2.14E−05] M | – | – |
| Oc1c(Cl)c(Cl)c(Cl)c(Cl)c1Cl [Pentachlorophenol] | 2.65E−05 [2.17E−05; 3.23E−05] M | – | – |
| O=S(=O)([O-])c1cc(S(=O)(=O)O)ccc1C1=c2cc3c4c(c2Oc2c1cc1c5c2CCCN5CCC1)CCC[N+]=4CCC3 [Sulforhodamine 101, reference compound] | – | ≥ 80% | – |
